Results reported in patent publication US8163771B2, “11 β-HSD1 modulators” (Exelixis, Inc., priority 2008, dated 2012).

target: T1, recombinant human 11 β-HSD1 (Homo sapiens, UniProt P28845); test: 11 β-HSD1 SPA Assay (Scintillation Proximity Assay); format: biochemical
T1 construct: made in house; host or cells: E. coli
How it was run: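 Scintillation proximity read-out of cortisol formed from 40 nM [3H]cortisone by purified recombinant human enzyme (30-100 nM, E. coli) with 1 mM NADPH, pH7.4, 2 hours at room temperature; beads with cortisol antibody and glycyrrhetinic acid stop the reaction, read next day. IC50 derived from inhibition normalised to background and maximal wells.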

T1 sequence (P28845 whole entry): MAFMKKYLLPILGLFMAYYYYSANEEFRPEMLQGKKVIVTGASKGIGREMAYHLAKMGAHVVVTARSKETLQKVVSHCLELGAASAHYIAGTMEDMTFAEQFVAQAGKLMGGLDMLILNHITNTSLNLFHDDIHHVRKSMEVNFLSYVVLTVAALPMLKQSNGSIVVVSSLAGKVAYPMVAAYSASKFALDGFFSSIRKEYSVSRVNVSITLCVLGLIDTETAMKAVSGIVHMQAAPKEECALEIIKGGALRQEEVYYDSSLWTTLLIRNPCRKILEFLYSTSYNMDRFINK

`CC(C)(Oc1ccc(F)cc1Cl)C(=O)N[C@H]1C[C@H]2CC[C@@H](C1)N2c1ccc(-c2nc(C(F)(F)F)n[nH]2)cn1` [Example 330, 2-[(2-chloro-4-fluorophenyl)oxy]-2-methyl-N-(8-{5-[3-(trifluoromethyl)-1H-1,2,4-triazol-5-yl]pyridin-2-yl}-8-azabicyclo[3.2.1]oct-3-endo-yl)propanamide] and `CC(C)(Oc1ccc(Cl)cc1C(F)(F)F)C(=O)N[C@H]1C[C@H]2CC[C@@H](C1)N2c1ccc(NS(C)(=O)=O)cn1` [Example 333, 2-{[4-chloro-2-(trifluoromethyl)phenyl]oxy}-2-methyl-N-(8-{5-[(methylsulfonyl)amino]pyridin-2-yl}-8-azabicyclo[3.2.1]oct-3-endo-yl)propanamide] cannot be ordered by IC50: less than 2000 nM for the first, less than 200 nM for the second.

`CC(C)c1cc(Cl)ccc1OC(C)(C)C(=O)N[C@H]1C[C@H]2CC[C@@H](C1)N2c1ccc(C(N)=O)cn1` [Example 331, 6-{3-endo-[(2-{[4-chloro-2-(1-methylethyl)phenyl]oxy}-2-methylpropanoyl)amino]-8-azabicyclo[3.2.1]oct-8-yl}pyridine-3-carboxamide] and `CC(C)(Oc1ccc(Cl)cc1S(C)(=O)=O)C(=O)N[C@H]1C[C@H]2CC[C@@H](C1)N2c1ccc(C(N)=O)cn1` [Example 334, 6-{3-endo-[(2-{[4-chloro-2-(methylsulfonyl)phenyl]oxy}-2-methylpropanoyl)amino]-8-azabicyclo[3.2.1]oct-8-yl}pyridine-3-carboxamide] cannot be ordered by IC50: less than 200 nM for the first, less than 200 nM for the second.

`CS(=O)(=O)c1ccc(N2[C@@H]3CC[C@H]2C[C@@H](NC(=O)C2(c4ccc(F)c(Cl)c4)CC2)C3)nc1` [Example 332, 1-(3-chloro-4-fluorophenyl)-N-{8-[5-(methylsulfonyl)pyridin-2-yl]-8-azabicyclo[3.2.1]oct-3-endo-yl}cyclopropanecarboxamide] and `CC(C)(Oc1cc(C(F)(F)F)ccc1F)C(=O)N[C@H]1C[C@H]2CC[C@@H](C1)N2c1ccc(S(C)(=O)=O)cn1` [Example 335, 2-{[2-fluoro-5-(trifluoromethyl)phenyl]oxy}-2-methyl-N-{8-[5-(methylsulfonyl)pyridin-2-yl]-8-azabicyclo[3.2.1]oct-3-endo-yl}propanamide] cannot be ordered by IC50: less than 200 nM for the first, less than 2000 nM for the second.

`CC(C)(O)CNC(=O)c1ccc(N2[C@@H]3CC[C@H]2C[C@@H](NC(=O)C(C)(C)Oc2cc(C(C)(C)O)c(Cl)cc2Cl)C3)nc1` [Example 336, 6-[3-endo-({2-[2,4-dichloro-5-(2-hydroxypropan-2-yl)phenoxy]-2-methylpropanoyl}amino)-8-azabicyclo[3.2.1]oct-8-yl]-N-(2-hydroxy-2-methylpropyl)pyridine-3-carboxamide] and `CC(C)(Oc1ccc(Cl)cc1Br)C(=O)N[C@H]1C[C@H]2CC[C@@H](C1)N2c1ccc(C(=O)NCC(F)(F)F)cn1` [Example 337, 6-(3-endo-{[2-(2-bromo-4-chlorophenoxy)-2-methylpropanoyl]amino}-8-azabicyclo[3.2.1]oct-8-yl)-N-(2,2,2-trifluoroethyl)pyridine-3-carboxamide] cannot be ordered by IC50: less than 200 nM for the first, less than 200 nM for the second.

`CC(C)(Oc1ccc2ccccc2c1)C(=O)N[C@H]1C[C@H]2CC[C@@H](C1)N2c1ccc(C(=O)NCC(F)(F)F)cn1` [Example 338, 6-(3-endo-{[2-methyl-2-(naphthalen-2-yloxy)propanoyl]amino}-8-azabicyclo[3.2.1]oct-8-yl)-N-(2,2,2-trifluoroethyl)pyridine-3-carboxamide] and `CC(C)(Oc1ccc2ccccc2c1Cl)C(=O)N[C@H]1C[C@H]2CC[C@@H](C1)N2c1ccc(C(=O)NCC(F)(F)F)cn1` [Example 348, 6-[3-endo-({2-[(1-chloronaphthalen-2-yl)oxy]-2-methylpropanoyl}amino)-8-azabicyclo[3.2.1]oct-8-yl]-N-(2,2,2-trifluoroethyl)pyridine-3-carboxamide] cannot be ordered by IC50: less than 200 nM for the first, less than 200 nM for the second.

`CC(C)(Oc1nccc2ccccc12)C(=O)N[C@H]1C[C@H]2CC[C@@H](C1)N2c1ccc(C(N)=O)cn1` [Example 339, 6-(3-endo-{[2-(isoquinolin-1-yloxy)-2-methylpropanoyl]amino}-8-azabicyclo[3.2.1]oct-8-yl)pyridine-3-carboxamide] and `CC(C)(Oc1cc(-c2ccccc2)ccc1Cl)C(=O)N[C@H]1C[C@H]2CC[C@@H](C1)N2c1ccc(C(N)=O)cn1` [Example 344, 6-[3-endo-({2-[(4-chlorobiphenyl-3-yl)oxy]-2-methylpropanoyl}amino)-8-azabicyclo[3.2.1]oct-8-yl]pyridine-3-carboxamide] cannot be ordered by IC50: less than 200 nM for the first, less than 200 nM for the second.

`CC(C)(Oc1ccc(Cl)cc1Cl)C(=O)N[C@H]1C[C@H]2CC[C@@H](C1)N2c1ccc(C(=O)NCCN2CCCC2)cn1` [Example 340, 6-(3-endo-{[2-(2,4-dichlorophenoxy)-2-methylpropanoyl]amino}-8-azabicyclo[3.2.1]oct-8-yl)-N-[2-(pyrrolidin-1-yl)ethyl]pyridine-3-carboxamide] and `CC(C)(Oc1ccc(Cl)cc1Cl)C(=O)N[C@H]1C[C@H]2CC[C@@H](C1)N2c1ccc(C(=O)NCCCn2ccnc2)cn1` [Example 341, 6-(3-endo-{[2-(2,4-dichlorophenoxy)-2-methylpropanoyl]amino}-8-azabicyclo[3.2.1]oct-8-yl)-N-[3-(1h-imidazol-1-yl)propyl]pyridine-3-carboxamide] cannot be ordered by IC50: less than 200 nM for the first, less than 200 nM for the second.

`CC(C)(Oc1ccc(Cl)cc1Cl)C(=O)N[C@H]1C[C@H]2CC[C@@H](C1)N2c1ccc(C(=O)NCc2ccncc2)cn1` [Example 342, 6-(3-endo-{[2-(2,4-dichlorophenoxy)-2-methylpropanoyl]amino}-8-azabicyclo[3.2.1]oct-8-yl)-N-(pyridin-4-ylmethyl)pyridine-3-carboxamide] and `CC(C)(Oc1ccc(Cl)cc1C(F)(F)F)C(=O)N[C@H]1C[C@H]2CC[C@@H](C1)N2c1ccc(C(=O)NCC(F)F)cn1` [Example 343, 6-[3-endo-({2-[4-chloro-2-(trifluoromethyl)phenoxy]-2-methylpropanoyl}amino)-8-azabicyclo[3.2.1]oct-8-yl]-N-(2,2-difluoroethyl)pyridine-3-carboxamide] cannot be ordered by IC50: less than 200 nM for the first, less than 200 nM for the second.

`CC(C)(Oc1ccc(Cl)cc1C(F)(F)F)C(=O)NC1CC2CCC(C1)N2c1ccc(C(=O)NC2CC2(F)F)cn1` (stereo not drawn) [Example 345, 6-[3-endo-({2-[4-chloro-2-(trifluoromethyl)phenoxy]-2-methylpropanoyl}amino)-8-azabicyclo[3.2.1]oct-8-yl]-N-(2,2-difluorocyclopropyl)pyridine-3-carboxamide] and `CC(C)(Oc1ccccc1OC(F)(F)F)C(=O)N[C@H]1C[C@H]2CC[C@@H](C1)N2c1ccc(C(=O)NCC(F)(F)F)cn1` [Example 347, 6-[3-endo-({2-methyl-2-[2-(trifluoromethoxy)phenoxy]propanoyl}amino)-8-azabicyclo[3.2.1]oct-8-yl]-N-(2,2,2-trifluoroethyl)pyridine-3-carboxamide] cannot be ordered by IC50: less than 200 nM for the first, less than 200 nM for the second.

In the case of `CC(C)(Oc1cc(-c2ccc(F)cc2)ccc1Cl)C(=O)N[C@H]1C[C@H]2CC[C@@H](C1)N2c1ccc(C(N)=O)cn1` [Example 346, 6-[3-endo-({2-[(4-chloro-4′-fluorobiphenyl-3-yl)oxy]-2-methylpropanoyl}amino)-8-azabicyclo[3.2.1]oct-8-yl]pyridine-3-carboxamide], the IC50 is reported as less than 200 nM.
